Test results taken from PubChem BioAssay AID720737 (The Scripps Research Institute Molecular Screening Center, 2013).
Calls of active or inactive are those of the source.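 The calls were made as follows: active = compounds whose fitted concentration for half of maximal LXR reporter activation EC50 is 10 µM or lower; inactive = the rest.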

Tested on: HEK293 Gal4-LXR tk-luc reporter, luminescence, 24 h
Assay: LXR agonists, Gal4 luciferase reporter, dose response, counter-screen for ssDAF-12 agonist project, cell-based, luminescence, HEK293, S. stercoralis campaign (AID 720737)

CC(C)(C)C1CCC(=NNC(=S)Nc2cccnc2)CC1 (stereo unspecified)
EC50: > 67.5 µM (inactive)
